Results published in patent US20240269139A1, “COMPOUNDS FOR TARGETED PROTEIN DEGRADATION OF KINASES” (DANA-FARBER CANCER INSTITUTE, INC., priority 2020, published 2024).
Read-outs that look alike come from different tables or passages of the source.

What was measured:
Assay type in all cases: cell-based
[1] = target: protein kinases (human kinome) (Homo sapiens, UniProt O00764); conditions: protein PDXK (O00764-1); experiment wp117; down
[2] = target: T1, protein kinases (human kinome) (Homo sapiens, UniProt P53778); conditions: for logFC MAPK12 (P53778): direction of change down; for logFC: MAPK12 (P53778)
T1 sequence (P53778 1-367): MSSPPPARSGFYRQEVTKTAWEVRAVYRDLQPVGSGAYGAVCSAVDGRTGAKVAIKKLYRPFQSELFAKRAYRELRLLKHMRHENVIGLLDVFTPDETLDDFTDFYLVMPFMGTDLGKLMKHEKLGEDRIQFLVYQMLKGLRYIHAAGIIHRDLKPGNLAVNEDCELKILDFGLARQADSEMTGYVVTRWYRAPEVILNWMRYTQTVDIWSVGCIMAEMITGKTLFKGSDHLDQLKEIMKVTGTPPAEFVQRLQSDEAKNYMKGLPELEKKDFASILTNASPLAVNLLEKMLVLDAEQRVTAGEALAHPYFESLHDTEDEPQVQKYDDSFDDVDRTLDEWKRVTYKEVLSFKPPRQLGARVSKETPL

[3] = target: protein kinases (human kinome) (Homo sapiens, UniProt P54753)
[4] = target: protein kinases (human kinome) (Homo sapiens, UniProt Q16644); conditions: experiment wp168
Sequence of protein kinases (human kinome) (Homo sapiens, UniProt Q16644) (Q16644 whole entry): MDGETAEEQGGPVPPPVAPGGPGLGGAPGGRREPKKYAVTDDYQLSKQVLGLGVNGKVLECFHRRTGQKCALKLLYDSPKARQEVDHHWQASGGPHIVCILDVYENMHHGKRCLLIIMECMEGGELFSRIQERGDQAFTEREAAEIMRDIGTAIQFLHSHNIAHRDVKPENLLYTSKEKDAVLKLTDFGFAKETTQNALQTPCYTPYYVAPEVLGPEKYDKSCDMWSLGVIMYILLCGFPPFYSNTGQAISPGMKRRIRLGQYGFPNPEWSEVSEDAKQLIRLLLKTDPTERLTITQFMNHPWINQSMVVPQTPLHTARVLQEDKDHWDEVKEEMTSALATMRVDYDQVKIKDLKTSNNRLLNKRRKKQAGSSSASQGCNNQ

[5] = target: protein kinases (human kinome) (Homo sapiens, UniProt Q16877); conditions: PFKFB4 (Q16877); experiment wp080
[6] = target: protein kinases (human kinome) (Homo sapiens, UniProt Q9P2K8); conditions: experiment wp080
[7] = target: protein kinases (human kinome) (Homo sapiens, UniProt Q96GD4); conditions: for logFC AURKB: AURKB Q96GD4
Sequence of protein kinases (human kinome) (Homo sapiens, UniProt Q96GD4) (Q96GD4 whole entry): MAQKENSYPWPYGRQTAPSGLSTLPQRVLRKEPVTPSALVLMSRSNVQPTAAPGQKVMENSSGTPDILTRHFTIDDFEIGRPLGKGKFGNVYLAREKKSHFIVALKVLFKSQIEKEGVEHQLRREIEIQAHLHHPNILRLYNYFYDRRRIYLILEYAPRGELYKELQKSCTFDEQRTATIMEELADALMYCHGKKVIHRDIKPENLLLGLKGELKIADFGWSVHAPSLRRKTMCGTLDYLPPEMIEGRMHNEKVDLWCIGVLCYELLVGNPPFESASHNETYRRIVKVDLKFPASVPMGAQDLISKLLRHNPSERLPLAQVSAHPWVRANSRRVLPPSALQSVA

[8] = target: protein kinases (human kinome) (Homo sapiens, UniProt Q96QT4); conditions: experiment wp107
Sequence of protein kinases (human kinome) (Homo sapiens, UniProt Q96QT4) (Q96QT4 whole entry): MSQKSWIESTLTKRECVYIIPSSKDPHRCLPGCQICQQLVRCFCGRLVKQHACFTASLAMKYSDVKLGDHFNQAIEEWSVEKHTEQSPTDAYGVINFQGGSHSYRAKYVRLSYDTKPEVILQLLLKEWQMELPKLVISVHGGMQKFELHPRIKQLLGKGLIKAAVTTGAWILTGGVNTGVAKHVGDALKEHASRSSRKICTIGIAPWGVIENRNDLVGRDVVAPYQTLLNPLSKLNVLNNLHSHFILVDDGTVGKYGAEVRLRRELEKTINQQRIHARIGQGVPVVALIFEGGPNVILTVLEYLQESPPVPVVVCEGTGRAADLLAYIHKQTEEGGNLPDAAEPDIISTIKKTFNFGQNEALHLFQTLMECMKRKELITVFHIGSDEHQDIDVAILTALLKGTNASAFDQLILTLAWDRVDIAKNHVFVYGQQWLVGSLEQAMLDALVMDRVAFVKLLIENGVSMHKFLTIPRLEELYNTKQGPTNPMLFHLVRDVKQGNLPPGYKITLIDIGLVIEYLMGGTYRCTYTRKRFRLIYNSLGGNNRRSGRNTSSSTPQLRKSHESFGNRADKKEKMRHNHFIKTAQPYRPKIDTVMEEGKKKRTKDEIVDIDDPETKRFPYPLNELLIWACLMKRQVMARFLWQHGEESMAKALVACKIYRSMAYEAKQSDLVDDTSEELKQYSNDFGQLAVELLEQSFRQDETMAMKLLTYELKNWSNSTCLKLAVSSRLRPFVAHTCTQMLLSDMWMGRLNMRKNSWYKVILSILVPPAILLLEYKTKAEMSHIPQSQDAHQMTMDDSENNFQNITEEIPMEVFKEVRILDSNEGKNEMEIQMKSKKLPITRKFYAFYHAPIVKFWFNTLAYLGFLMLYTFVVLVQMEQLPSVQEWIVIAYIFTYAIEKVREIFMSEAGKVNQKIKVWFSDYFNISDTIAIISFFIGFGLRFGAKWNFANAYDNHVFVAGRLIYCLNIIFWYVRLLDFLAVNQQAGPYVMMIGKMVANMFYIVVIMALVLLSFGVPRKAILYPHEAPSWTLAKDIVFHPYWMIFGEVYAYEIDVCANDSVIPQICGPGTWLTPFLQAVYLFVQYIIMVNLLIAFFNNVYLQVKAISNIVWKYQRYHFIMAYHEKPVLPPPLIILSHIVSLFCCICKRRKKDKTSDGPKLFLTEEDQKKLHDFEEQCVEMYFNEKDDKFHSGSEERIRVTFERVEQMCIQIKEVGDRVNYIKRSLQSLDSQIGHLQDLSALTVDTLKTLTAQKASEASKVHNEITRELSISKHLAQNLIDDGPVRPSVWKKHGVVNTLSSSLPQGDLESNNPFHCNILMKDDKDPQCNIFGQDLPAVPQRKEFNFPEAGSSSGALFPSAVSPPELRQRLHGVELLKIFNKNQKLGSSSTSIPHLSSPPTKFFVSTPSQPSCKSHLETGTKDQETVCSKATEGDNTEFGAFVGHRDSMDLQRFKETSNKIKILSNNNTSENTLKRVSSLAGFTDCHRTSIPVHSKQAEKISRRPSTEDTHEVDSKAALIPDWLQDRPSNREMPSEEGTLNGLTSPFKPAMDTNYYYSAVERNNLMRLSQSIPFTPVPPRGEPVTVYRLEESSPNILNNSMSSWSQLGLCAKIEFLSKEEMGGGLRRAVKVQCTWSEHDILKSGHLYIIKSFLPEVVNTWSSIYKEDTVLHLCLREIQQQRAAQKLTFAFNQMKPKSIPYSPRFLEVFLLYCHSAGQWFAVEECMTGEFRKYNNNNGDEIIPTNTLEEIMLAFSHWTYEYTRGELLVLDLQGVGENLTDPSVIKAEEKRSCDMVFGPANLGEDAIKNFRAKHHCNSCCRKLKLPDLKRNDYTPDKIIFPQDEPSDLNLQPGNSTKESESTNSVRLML

[9] = target: protein kinases (human kinome) (Homo sapiens, UniProt Q15120); conditions: experiment wp160, 1 hr
Sequence of protein kinases (human kinome) (Homo sapiens, UniProt Q15120) (Q15120 whole entry): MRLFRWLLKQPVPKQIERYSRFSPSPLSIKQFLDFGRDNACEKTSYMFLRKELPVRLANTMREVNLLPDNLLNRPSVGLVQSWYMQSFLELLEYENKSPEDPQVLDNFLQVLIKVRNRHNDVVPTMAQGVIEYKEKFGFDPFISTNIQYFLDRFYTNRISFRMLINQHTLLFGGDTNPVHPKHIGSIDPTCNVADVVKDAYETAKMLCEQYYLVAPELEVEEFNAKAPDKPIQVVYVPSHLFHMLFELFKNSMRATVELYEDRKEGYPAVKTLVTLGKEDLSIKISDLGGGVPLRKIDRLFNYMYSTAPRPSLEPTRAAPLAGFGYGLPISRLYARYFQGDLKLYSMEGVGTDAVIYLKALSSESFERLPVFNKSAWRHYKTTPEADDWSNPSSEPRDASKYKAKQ

[10] = target: protein kinases (human kinome) (Homo sapiens, UniProt Q9UK32)
Sequence of protein kinases (human kinome) (Homo sapiens, UniProt Q9UK32) (Q9UK32 whole entry): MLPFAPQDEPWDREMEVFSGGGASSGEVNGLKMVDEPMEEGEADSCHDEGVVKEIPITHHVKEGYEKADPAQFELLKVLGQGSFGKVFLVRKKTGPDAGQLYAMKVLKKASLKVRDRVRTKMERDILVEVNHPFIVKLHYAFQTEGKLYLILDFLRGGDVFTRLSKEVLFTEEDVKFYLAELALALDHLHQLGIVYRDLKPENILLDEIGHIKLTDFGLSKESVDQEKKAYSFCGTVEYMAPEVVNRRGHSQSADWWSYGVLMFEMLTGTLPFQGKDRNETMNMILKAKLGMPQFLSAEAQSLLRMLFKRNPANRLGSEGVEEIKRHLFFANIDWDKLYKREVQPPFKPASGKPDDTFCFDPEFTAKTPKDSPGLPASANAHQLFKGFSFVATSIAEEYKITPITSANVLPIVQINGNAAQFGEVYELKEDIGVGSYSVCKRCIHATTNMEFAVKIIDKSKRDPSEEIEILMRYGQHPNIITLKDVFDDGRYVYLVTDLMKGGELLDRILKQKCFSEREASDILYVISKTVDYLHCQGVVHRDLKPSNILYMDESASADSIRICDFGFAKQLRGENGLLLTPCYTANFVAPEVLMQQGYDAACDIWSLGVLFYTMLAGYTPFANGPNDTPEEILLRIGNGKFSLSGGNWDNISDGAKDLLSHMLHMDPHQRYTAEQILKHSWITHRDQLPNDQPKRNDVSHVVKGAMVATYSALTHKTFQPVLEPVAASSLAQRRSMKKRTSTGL

[11] = target: protein kinases (human kinome) (Homo sapiens, UniProt Q86UX6)
Sequence of protein kinases (human kinome) (Homo sapiens, UniProt Q86UX6) (Q86UX6 whole entry): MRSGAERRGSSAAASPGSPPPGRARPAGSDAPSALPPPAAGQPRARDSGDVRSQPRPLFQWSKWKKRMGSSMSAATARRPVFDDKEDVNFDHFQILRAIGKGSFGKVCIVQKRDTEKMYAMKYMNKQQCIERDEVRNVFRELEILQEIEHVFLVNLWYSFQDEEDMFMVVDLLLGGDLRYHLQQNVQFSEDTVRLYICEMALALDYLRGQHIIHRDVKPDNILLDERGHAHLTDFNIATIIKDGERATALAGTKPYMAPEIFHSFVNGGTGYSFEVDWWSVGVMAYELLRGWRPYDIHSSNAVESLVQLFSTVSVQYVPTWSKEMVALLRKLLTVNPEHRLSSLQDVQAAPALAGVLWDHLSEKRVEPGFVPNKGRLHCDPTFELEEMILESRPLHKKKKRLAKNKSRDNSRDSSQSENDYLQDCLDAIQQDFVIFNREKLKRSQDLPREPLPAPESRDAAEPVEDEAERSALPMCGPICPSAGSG

[12] = target: protein kinases (human kinome) (Homo sapiens, UniProt O00418); conditions: experiment wp137
Sequence of protein kinases (human kinome) (Homo sapiens, UniProt O00418) (O00418 whole entry): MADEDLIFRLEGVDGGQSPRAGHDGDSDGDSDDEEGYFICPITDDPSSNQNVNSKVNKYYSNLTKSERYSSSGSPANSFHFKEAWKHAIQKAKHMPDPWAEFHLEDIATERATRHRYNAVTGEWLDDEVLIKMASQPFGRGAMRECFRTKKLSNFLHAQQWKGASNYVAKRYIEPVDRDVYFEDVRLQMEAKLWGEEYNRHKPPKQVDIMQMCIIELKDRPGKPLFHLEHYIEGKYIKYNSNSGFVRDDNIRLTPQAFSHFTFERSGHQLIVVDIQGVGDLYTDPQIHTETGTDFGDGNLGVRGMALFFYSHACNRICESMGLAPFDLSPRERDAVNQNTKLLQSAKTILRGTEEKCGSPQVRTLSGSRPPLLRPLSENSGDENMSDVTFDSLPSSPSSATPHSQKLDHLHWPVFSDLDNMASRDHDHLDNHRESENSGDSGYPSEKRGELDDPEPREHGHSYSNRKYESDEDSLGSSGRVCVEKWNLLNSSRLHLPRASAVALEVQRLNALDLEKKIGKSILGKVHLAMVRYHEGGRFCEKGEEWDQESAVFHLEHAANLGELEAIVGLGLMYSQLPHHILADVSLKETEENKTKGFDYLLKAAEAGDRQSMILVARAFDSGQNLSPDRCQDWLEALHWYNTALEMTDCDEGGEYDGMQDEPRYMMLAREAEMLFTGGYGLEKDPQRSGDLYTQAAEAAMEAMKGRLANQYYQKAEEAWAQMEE

[13] = target: protein kinases (human kinome) (Homo sapiens, UniProt P41743); conditions: experiment wp056
[14] = target: protein kinases (human kinome) (Homo sapiens, UniProt Q8TEA7); conditions: experiment wp056
[15] = target: protein kinases (human kinome) (Homo sapiens, UniProt P52429); conditions: protein DGKE (P52429); experiment wp056; down
[16] = Experiment wp114, direction of change down

## CS(=O)(=O)Nc1cccc(-c2csc3cnc(Nc4ccc(N5CCN(CCCCCOc6cccc7c6C(=O)N(C6CCC(=O)NC6=O)C7=O)CC5)cc4)nc23)c1 (stereo not shown) [DB0614, N-(3-(2-((4-(4-(5-((2-(2,6-Dioxopiperidin-3-yl)-1,3-dioxoisoindolin-4-yl)oxy)pentyl)piperazin-1-yl)phenyl)amino)thieno[3,2-d]pyrimidin-7-yl)phenyl)methanesulfonamide]
[1]
  logFC PDXK: −0.3964

## Cc1ccc(NC(=O)c2cccc(C(F)(F)F)c2)cc1N1Cc2cnc(Nc3ccc(N4CCN(Cc5cn(CCCCCOc6cccc7c6C(=O)N(C6CCC(=O)NC6=O)C7=O)nn5)CC4)nc3)nc2N(C)C1=O (stereo not shown) [DB0646, N-(3-(7-((6-(4-((1-(5-((2-(2,6-Dioxopiperidin-3-yl)-1,3-dioxoisoindolin-4-yl)oxy)pentyl)-1H-1,2,3-triazol-4-yl)methyl)piperazin-1-v)pyridin-3-yl)amino)-1-methyl-2-oxo-1,4-dihydropyrimido[4,5-d]pyrimidin-3(2H)-yl)-4-methylphenyl)-3-(trifluoromethyl)benzamide]
[2]; Experiment wp105
  logFC MAPK12 (P53778): −0.5939
[2]; experiment wp105
  logFC: −0.5939
[2]; experiment wp172
  logFC: −1.457
  logFC MAPK12 (P53778): −1.457
[3]; [16]
  logFC EPHB3 (P54753): −0.4175
[3]; protein EPHB3 (P54753), experiment wp114, down
  logFC EPHB3: −0.4175

## Cc1ccc(NC(=O)c2cccc(C(F)(F)F)c2)cc1N1Cc2cnc(Nc3ccc(N4CCN(CCCCC(=O)N[C@H](C(=O)N5C[C@H](O)C[C@H]5C(=O)N[C@@H](C)c5ccc(-c6scnc6C)cc5)C(C)(C)C)CC4)nc3)nc2N(C)C1=O [DB1113]
[4]; MAPKAPK3 (Q16644)
  logFC: −3.127
[4]; direction of change down
  logFC MAPKAPK3 (Q16644): −3.127

## Cc1ncsc1-c1ccc([C@H](C)NC(=O)[C@@H]2C[C@@H](O)CN2C(=O)[C@@H](NC(=O)CCCCCN2CCN(c3ccc(Nc4ncc5scc(-c6cccc(NS(C)(=O)=O)c6)c5n4)cc3)CC2)C(C)(C)C)cc1 [RSS0680, (2S,4R)-1-((S)-3,3-Dimethyl-2-(6-(4-(4-((7-(3-(methylsulfonamido)phenyl)thieno[3,2-d]pyrimidin-2-yl)amino)phenyl)piperazin-1-yl)hexanamido)butanoyl)-4-hydroxy-N—((S)-1-(4-(4-methylthiazol-5yl)phenyl)ethyl)pyrrolidine-2-carboxamide]
[5]
  logFC: −0.3389
[6]; direction of change down
  logFC EIF2AK4 (Q9P2K8-1): −0.3311
[6]; protein EIF2AK4 (Q9P2K8-1), down
  logFC EIF2AK4: −0.3311

## CC(C)S(=O)(=O)c1ccccc1Nc1nc(Nc2ccc(N3CCN(CCOCCNC(=O)CNc4cccc5c4C(=O)N(C4CCC(=O)NC4=O)C5=O)CC3)cc2)ncc1Cl (stereo not shown) [SK.3.91]
[7]; experiment wp160, 4 hr
  logFC AURKB: −0.4984
  logFC of AURKB (Q96GD4): −0.4984
[7]; experiment wp172
  logFC AURKB: −1.11
[7]; Experiment wp172
  logFC of AURKB (Q96GD4): −1.11
[8]; direction of change down
  logFC TRPM7 (Q96QT4): −0.3241
[8]; protein TRPM7 (Q96QT4), down
  logFC TRPM7: −0.3241
[9]
  logFC PDK3 (Q15120-1): −0.9801
  logFC of PDK3 (Q15120-1): −0.9801
[10]; Experiment wp105, direction of change down
  logFC RPS6KA6 (Q9UK32): −0.83
[10]; protein RPSGKA6 (Q9UK32), experiment wp105, down
  logFC RPSGKA6: −0.83
[11]; [16]
  logFC STK32C (Q86UX6): −0.6189
[11]; protein STK32C (Q86UX6), experiment wp114, down
  logFC STK32C: −0.6189

## CC(C)S(=O)(=O)c1ccccc1Nc1nc(Nc2ccc(N3CCN(CCOCCOCCNC(=O)CNc4cccc5c4C(=O)N(C4CCC(=O)NC4=O)C5=O)CC3)cc2)ncc1Cl (stereo not shown) [TL12.186]
[12]; direction of change down
  logFC EEF2K (O00418): −0.3443
[12]; protein EEF2K (O00418), down
  logFC EEF2K: −0.3443

## C=CCn1c(=O)c2cnc(Nc3ccc(N4CCN(CCCNc5cccc6c5C(=O)N(C5CCC(=O)NC5=O)C6=O)CC4)cc3)nc2n1-c1cccc(C(C)(C)O)n1 (stereo not shown) [ZNL.02.096]
[13]; direction of change down
  logFC PRKCI (P41743): −0.5365
[13]; protein PRKCI (P41743), down
  logFC PRKCI: −0.5365
[14]; direction of change down
  logFC TBCK (Q8TEA7): −0.3334
[14]; protein TBCK (QSTEA7), down
  logFC TBCK: −0.3334
[15]
  logFC DGKE: −0.3512
